pIC50: −log10 of the molar value.

T1 sequence (Q9NZ08 37-941): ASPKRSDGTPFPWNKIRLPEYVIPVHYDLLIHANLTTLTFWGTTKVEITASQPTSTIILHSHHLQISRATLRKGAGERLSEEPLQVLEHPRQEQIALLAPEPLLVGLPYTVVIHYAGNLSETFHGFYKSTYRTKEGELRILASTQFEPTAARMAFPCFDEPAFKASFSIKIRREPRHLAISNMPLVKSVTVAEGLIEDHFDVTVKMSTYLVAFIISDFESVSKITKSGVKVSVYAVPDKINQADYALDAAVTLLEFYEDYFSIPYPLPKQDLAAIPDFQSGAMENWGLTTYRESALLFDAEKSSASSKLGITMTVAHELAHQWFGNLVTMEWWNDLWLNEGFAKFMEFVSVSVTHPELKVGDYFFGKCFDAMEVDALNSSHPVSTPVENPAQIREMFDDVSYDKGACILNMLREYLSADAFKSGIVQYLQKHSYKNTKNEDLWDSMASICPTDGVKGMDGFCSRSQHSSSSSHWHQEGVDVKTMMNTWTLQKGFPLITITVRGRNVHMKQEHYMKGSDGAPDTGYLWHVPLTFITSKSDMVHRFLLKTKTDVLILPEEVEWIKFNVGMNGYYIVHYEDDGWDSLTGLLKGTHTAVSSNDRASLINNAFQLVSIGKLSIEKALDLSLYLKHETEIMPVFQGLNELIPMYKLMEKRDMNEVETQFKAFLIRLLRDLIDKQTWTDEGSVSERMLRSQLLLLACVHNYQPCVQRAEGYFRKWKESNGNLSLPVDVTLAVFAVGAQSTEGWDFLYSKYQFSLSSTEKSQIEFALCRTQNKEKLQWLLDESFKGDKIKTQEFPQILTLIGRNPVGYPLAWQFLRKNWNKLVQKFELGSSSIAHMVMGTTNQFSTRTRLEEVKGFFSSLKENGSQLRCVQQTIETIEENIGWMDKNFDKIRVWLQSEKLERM

This assay addresses T1, Purified ERAP1 (37-941)-10His (ERAP1) (Homo sapiens, UniProt Q9NZ08).
T1 construct: Purified ERAP1 (37-941)-10His (ERAP1)
Nature of the assay: ERAP1 mediated hydrolysis of an amide substrate (10-mer inhibition assay), biochemical system. As to conditions: 10-mer substrate, 23° C., 1 h, excitation 279 nm / emission 355 nm; read-out: IC50 vs Decapeptide WRVYEKC(Dnp)ALK-acid (where Dnp is Dinitrophenyl maleimide) (10-mer).
Consider `COc1ccc(C(=O)O)cc1S(=O)(=O)Nc1cc(C(F)(F)F)ccc1N1CCCC[C@@H]1C` [Example 239, (S)-4-methoxy-3-(N-(2-(2-methylpiperidin-1-yl)-5-(trifluoromethyl)phenyl)sulfamoyl)benzoic acid], for which the negative-log IC50 (pIC50) is above 6.30.

With `CCc1ccc(C(=O)O)cc1S(=O)(=O)Nc1cc(C(F)(F)F)ccc1N1CCCC[C@@H]1C` [Example 240, (S)-4-ethyl-3-(N-(2-(2-methylpiperidin-1-yl)-5-(trifluoromethyl)phenyl)sulfamoyl)benzoic acid], the pIC50 is above 6.30.

Turning to `CCc1ccc(C(=O)O)cc1S(=O)(=O)Nc1cc(S(C)(=O)=O)ccc1N1CCCCC1` [Example 241, 4-ethyl-3-(N-(5-(methylsulfonyl)-2-(piperidin-1-yl)phenyl)sulfamoyl)benzoic acid], the pIC50 is above 6.30.

With `CCc1ccc(C(=O)O)cc1S(=O)(=O)Nc1cc(-n2cnnn2)ccc1N1CCCCC1` [Example 242, 4-ethyl-3-(N-(2-(piperidin-1-yl)-5-(tetrazol-1-yl)phenyl)sulfamoyl)benzoic acid], the negative-log IC50 (pIC50) is above 6.30.

With `COc1ccc(C(=O)O)cc1S(=O)(=O)Nc1cc(C(F)(F)F)ccc1N1CCC[C@@H](O)C1` [Example 243, I-3-(N-(2-(3-hydroxypiperidin-1-yl)-5-(trifluoromethyl)phenyl)sulfamoyl)-4-methoxybenzoic acid], the pIC50 is above 6.30.

For `COc1ccc(C(=O)O)cc1S(=O)(=O)Nc1cc(C(F)(F)F)ccc1N1CCC[C@H](O)C1` [Example 244, (S)-3-(N-(2-(3-hydroxypiperidin-1-yl)-5-(trifluoromethyl)phenyl)sulfamoyl)-4-methoxybenzoic acid], the pIC50 was above 6.30.

In the case of `COc1ccc(C(=O)O)cc1S(=O)(=O)Nc1cc(S(C)(=O)=O)ccc1N1CCC[C@@H](O)C1` [Example 245, I-3-(N-(2-(3-hydroxypiperidin-1-yl)-5-(methylsulfonyl)phenyl)sulfamoyl)-4-methoxybenzoic acid], the pIC50 is above 6.30.

Regarding `COc1ccc(C(=O)O)cc1S(=O)(=O)Nc1cc(S(C)(=O)=O)ccc1N1CCC[C@H](O)C1` [Example 246, (S)-3-(N-(2-(3-hydroxypiperidin-1-yl)-5-(methylsulfonyl)phenyl)sulfamoyl)-4-methoxybenzoic acid], the pIC50 is above 6.30.

For `CCc1ccc(C(=O)O)cc1S(=O)(=O)Nc1cc(S(C)(=O)=O)ccc1N1CCC[C@H](O)C1` [Example 247, (S)-4-ethyl-3-(N-(2-(3-hydroxypiperidin-1-yl)-5-(methylsulfonyl)phenyl)sulfamoyl)benzoic acid], the negative logarithm of the IC50 (pIC50) is above 6.30.

Consider `COc1ccc(C(=O)O)cc1S(=O)(=O)Nc1cc(-n2cnnn2)ccc1N1CCC[C@@H](O)C1` [Example 248, I-3-(N-(2-(3-hydroxypiperidin-1-yl)-5-(tetrazol-1-yl)phenyl)sulfamoyl)-4-methoxybenzoic acid], for which the pIC50 is above 6.30.

`CCc1ccc(C(=O)O)cc1S(=O)(=O)Nc1cc(C(F)(F)F)ccc1N1CCC[C@@H](O)C1` [Example 249, I-4-ethyl-3-(N-(2-(3-hydroxypiperidin-1-yl)-5-(trifluoromethyl)phenyl)sulfamoyl)benzoic acid]: the pIC50 is above 6.30.

Take `CCc1ccc(C(=O)O)cc1S(=O)(=O)Nc1cc(C(F)(F)F)ccc1N1CCC[C@H](O)C1` [Example 250, (S)-4-ethyl-3-(N-(2-(3-hydroxypiperidin-1-yl)-5-(trifluoromethyl)phenyl)sulfamoyl)benzoic acid]: the negative logarithm of the IC50 (pIC50) was above 6.30.

Regarding `CCc1ccc(C(=O)O)cc1S(=O)(=O)Nc1cc(S(C)(=O)=O)ccc1N1CCC[C@@H](O)C1` [Example 251, I-4-ethyl-3-(N-(2-(3-hydroxypiperidin-1-yl)-5-(methylsulfonyl)phenyl)sulfamoyl)benzoic acid], the negative-log IC50 (pIC50) was above 6.30.

`CCc1ccc(C(=O)O)cc1S(=O)(=O)Nc1cc(-n2cnnn2)ccc1N1CCC[C@@H](O)C1` [Example 252, I-4-ethyl-3-(N-(2-(3-hydroxypiperidin-1-yl)-5-(tetrazol-1-yl)phenyl)sulfamoyl)benzoic acid]: the pIC50 was above 6.30.

Turning to `COc1ccc(C(=O)O)cc1S(=O)(=O)Nc1cc(-n2cnnn2)ccc1N1CCC[C@H](O)C1` [Example 253, (S)-3-(N-(2-(3-hydroxypiperidin-1-yl)-5-(tetrazol-1-yl)phenyl)sulfamoyl)-4-methoxybenzoic acid], the pIC50 is above 6.30.

On to `CCc1ccc(C(=O)O)cc1S(=O)(=O)Nc1cc(-n2cnnn2)ccc1N1CCC[C@H](O)C1` [Example 254, (S)-4-ethyl-3-(N-(2-(3-hydroxypiperidin-1-yl)-5-(tetrazol-1-yl)phenyl)sulfamoyl)benzoic acid], for which the pIC50 was above 6.30.

On to `CCc1ccc(C(=O)O)cc1S(=O)(=O)Nc1cc(S(C)(=O)=O)ccc1N1CC(C)(O)C1` [Example 255, 4-ethyl-3-(N-(2-(3-hydroxy-3-methylazetidin-1-yl)-5-(methylsulfonyl)phenyl)sulfamoyl)benzoic acid], for which the pIC50 is above 5.30.

Take `CCc1ccc(C(=O)O)cc1S(=O)(=O)Nc1cc(-n2cnnn2)ccc1N1CC(C)(O)C1` [Example 257, 4-ethyl-3-(N-(2-(3-hydroxy-3-methylazetidin-1-yl)-5-(tetrazol-1-yl)phenyl)sulfamoyl)benzoic acid]: the pIC50 was above 6.30.

Regarding `COc1ccc(C(=O)O)cc1S(=O)(=O)Nc1cc(C#N)ccc1N1CCC[C@@H](O)C1` [Example 258, I-3-(N-(5-cyano-2-(3-hydroxypiperidin-1-yl)phenyl)sulfamoyl)-4-methoxybenzoic acid], the negative logarithm of the IC50 (pIC50) is above 6.30.

Consider `COc1ccc(C(=O)O)cc1S(=O)(=O)Nc1cc(-c2nn[nH]n2)ccc1N1CCCCC1` [Example 259, 4-methoxy-3-(N-(2-(piperidin-1-yl)-5-(tetrazol-5-yl)phenyl)sulfamoyl)benzoic acid], for which the negative-log IC50 (pIC50) is above 6.30.

As for `CCc1ccc(C(=O)O)cc1S(=O)(=O)Nc1cc(C#N)ccc1N1CCC[C@@H](O)C1` [Example 260, I-3-(N-(5-cyano-2-(3-hydroxypiperidin-1-yl)phenyl)sulfamoyl)-4-ethylbenzoic acid], the pIC50 was above 6.30.

For the compound `CCc1ccc(C(=O)O)cc1S(=O)(=O)Nc1cc(-c2nn[nH]n2)ccc1N1CCCCC1` [Example 261, 4-ethyl-3-(N-(2-(piperidin-1-yl)-5-(tetrazol-5-yl)phenyl)sulfamoyl)benzoic acid], the pIC50 is above 6.30.

`CCc1ccc(C(=O)O)cc1S(=O)(=O)Nc1cc(S(C)(=O)=O)ccc1N1CCC[C@@H](F)C1` [Example 262, I-4-ethyl-3-(N-(2-(3-fluoropiperidin-1-yl)-5-(methylsulfonyl)phenyl)sulfamoyl)benzoic acid]: the pIC50 was above 6.30.

As for `CCc1ccc(C(=O)O)cc1S(=O)(=O)Nc1cc(C#N)ccc1N1CCC[C@H](O)C1` [Example 263, (S)-3-(N-(5-cyano-2-(3-hydroxypiperidin-1-yl)phenyl)sulfamoyl)-4-ethylbenzoic acid], the pIC50 was above 6.30.

Consider `COc1ccc(C(=O)O)cc1S(=O)(=O)Nc1cc(C#N)ccc1N1CCC[C@H](O)C1` [Example 264, (S)-3-(N-(5-cyano-2-(3-hydroxypiperidin-1-yl)phenyl)sulfamoyl)-4-methoxybenzoic acid], for which the pIC50 was above 6.30.

As usually defined, the pIC50 is −log10 of the IC50, conventionally taken in molar units.

The values above are taken from patent US12485169B2, “Compounds” (GREY WOLF THERAPEUTICS LIMITED, priority 2018, dated 2025).
